In ChEMBL document CHEMBL1201862, “PubChem BioAssay data set” (2004):
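In this assay, cells in 96-well plates receive the compound at five concentrations for 48 hours. Endpoints are linearly interpolated between the surrounding concentrations. Here, GI50 denotes the concentration required for 50% inhibition of growth.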 Active and inactive are the calls of the source. Cut-off read from the data, not from the text of the source: active = GI50 up to about 1.1 µM and inactive = higher.

Tests used:
Experiment in all cases: growth of human tumour cells (NCI), 48 h
[1] = tested on: ACHN
[2] = tested on: SW-620
[3] = tested on: RPMI-8226
[4] = tested on: K562
[5] = tested on: DU-145
[6] = tested on: UO-31
[7] = tested on: MDA-N
[8] = tested on: OVCAR-4
[9] = tested on: U-251
[10] = tested on: OVCAR-5
[11] = tested on: COLO 205
[12] = tested on: HCT-15
[13] = tested on: MDA-MB-231
[14] = tested on: HOP-62
[15] = tested on: PC-3
[16] = tested on: Hs-578T
[17] = tested on: NCI-H460
[18] = tested on: HCC 2998
[19] = tested on: SK-OV-3
[20] = tested on: SNB-75
[21] = tested on: SF-295
[22] = tested on: 786-0
[23] = tested on: CCRF-CEM
[24] = tested on: HT-29
[25] = tested on: NCI-H23
[26] = tested on: M14
[27] = tested on: TK-10
[28] = tested on: CAKI-1
[29] = tested on: BT-549
[30] = tested on: IGROV-1
[31] = tested on: UACC-257
[32] = tested on: Malme-3M
[33] = tested on: UACC-62
[34] = tested on: MOLT-4
[35] = tested on: SF-539
[36] = tested on: LOX IMVI
[37] = tested on: SNB-19
[38] = tested on: OVCAR-3
[39] = tested on: A549
[40] = tested on: A498
[41] = tested on: SK-MEL-28
[42] = tested on: HCT-116
[43] = tested on: SK-MEL-5
[44] = tested on: NCI-H226
[45] = tested on: OVCAR-8
[46] = tested on: SR
[47] = tested on: SN12C
[48] = tested on: NCI/ADR-RES
[49] = tested on: MDA-MB-435
[50] = tested on: KM12
[51] = tested on: SF-268
[52] = tested on: EKVX
[53] = tested on: RXF 393
[54] = tested on: MCF7
[55] = tested on: HL-60
[56] = tested on: HOP-92
[57] = tested on: SK-MEL-2
[58] = tested on: NCI-H522
[59] = tested on: T47D

Which results are given for CC1C(C)(C)C23CC12C1(OCCO1)C3Br (stereo not drawn)?
GI50 [1]: > 100 µM (inactive); GI50 [2]: > 100 µM (inactive); GI50 [3]: > 100 µM (inactive); GI50 [4]: > 100 µM (inactive); GI50 [5]: > 100 µM (inactive); GI50 [6]: 11.2 µM (inactive); GI50 [7]: > 100 µM (inactive); GI50 [8]: > 100 µM (inactive); GI50 [9]: > 100 µM (inactive); GI50 [10]: > 100 µM (inactive); GI50 [11]: > 100 µM (inactive); GI50 [12]: > 100 µM; GI50 [13]: > 100 µM (inactive); GI50 [14]: > 100 µM (inactive); GI50 [15]: > 100 µM (inactive); GI50 [16]: > 100 µM (inactive); GI50 [17]: > 100 µM (inactive); GI50 [18]: > 100 µM (inactive); GI50 [19]: > 100 µM (inactive); GI50 [20]: > 100 µM (inactive); GI50 [21]: > 100 µM (inactive); GI50 [22]: > 100 µM (inactive); GI50 [23]: > 100 µM (inactive); GI50 [24]: > 100 µM (inactive); GI50 [25]: > 100 µM (inactive); GI50 [26]: > 100 µM (inactive); GI50 [27]: > 100 µM (inactive); GI50 [28]: > 100 µM (inactive); GI50 [29]: > 100 µM (inactive); GI50 [30]: > 100 µM (inactive); GI50 [31]: > 100 µM (inactive); GI50 [32]: > 100 µM (inactive); GI50 [33]: > 100 µM (inactive); GI50 [34]: > 100 µM (inactive); GI50 [35]: > 100 µM (inactive); GI50 [36]: > 100 µM (inactive); GI50 [37]: > 100 µM (inactive); GI50 [38]: > 100 µM (inactive); GI50 [39]: > 100 µM (inactive); GI50 [40]: > 100 µM (inactive); GI50 [41]: > 100 µM (inactive); GI50 [42]: > 100 µM (inactive); GI50 [43]: > 100 µM (inactive); GI50 [44]: > 100 µM (inactive); GI50 [45]: > 100 µM (inactive); GI50 [46]: > 100 µM (inactive); GI50 [47]: > 100 µM (inactive); GI50 [48]: > 100 µM (inactive); GI50 [49]: > 100 µM (inactive); GI50 [50]: > 100 µM (inactive); GI50 [51]: > 100 µM (inactive); GI50 [52]: > 100 µM (inactive); GI50 [53]: > 100 µM (inactive); GI50 [54]: > 100 µM (inactive); GI50 [55]: > 100 µM (inactive)

With CNC(=O)c1ccc(C(=O)NCCCCCN(O)C(=O)CCC(=O)NCCCCCN(O)C(=O)CCC(=O)NCCCCCN(O)C(C)=O)c(O)c1O as the compound, how does the GI50 [1] read?
Its GI50 is 32.8 µM (inactive).

What about the GI50 [2] of the same compound?
The GI50 was 39.3 µM (inactive).

And the GI50 [3]?
Its GI50 is 38.5 µM (inactive).

What about the GI50 [4] of the same compound?
Its GI50 is 65 µM (inactive).

What about the GI50 [5] of the same compound?
The GI50 was 55.1 µM (inactive).

What about the GI50 [56] of the same compound?
Its GI50 is 37.4 µM (inactive).

And the GI50 [6]?
Its GI50 is 24.3 µM (inactive).

And the GI50 [7]?
Its GI50 is > 100 µM (inactive).

And the GI50 [8]?
The GI50 was 1.07 µM (active).

What about the GI50 [9] of the same compound?
The GI50 was 33.9 µM (inactive).

What about the GI50 [10] of the same compound?
Its GI50 is > 100 µM (inactive).

And the GI50 [11]?
The GI50 was 27.1 µM (inactive).

And the GI50 [12]?
Its GI50 is 21.9 µM.

And the GI50 [13]?
The GI50 was 53.7 µM (inactive).

And the GI50 [14]?
Its GI50 is 21.4 µM (inactive).

And the GI50 [15]?
Its GI50 is 86.7 µM (inactive).

What about the GI50 [16] of the same compound?
Its GI50 is > 100 µM (inactive).

What about the GI50 [17] of the same compound?
Its GI50 is 36.1 µM (inactive).

What about the GI50 [18] of the same compound?
Its GI50 is > 100 µM (inactive).

What about the GI50 [19] of the same compound?
Its GI50 is 45.4 µM (inactive).

And the GI50 [20]?
Its GI50 is > 100 µM (inactive).

What about the GI50 [21] of the same compound?
The GI50 was 42.6 µM (inactive).

And the GI50 [22]?
Its GI50 is 69.3 µM (inactive).

What about the GI50 [23] of the same compound?
The GI50 was 5 µM (inactive).

What about the GI50 [24] of the same compound?
Its GI50 is 38.9 µM (inactive).

And the GI50 [25]?
The GI50 was 65.9 µM (inactive).

And the GI50 [26]?
The GI50 was 59.8 µM (inactive).

What about the GI50 [27] of the same compound?
The GI50 was 78.9 µM (inactive).

And the GI50 [28]?
Its GI50 is 55.3 µM (inactive).

What about the GI50 [29] of the same compound?
Its GI50 is 56.6 µM (inactive).

And the GI50 [30]?
The GI50 was 60.4 µM (inactive).

What about the GI50 [31] of the same compound?
The GI50 was 68.5 µM (inactive).

What about the GI50 [32] of the same compound?
Its GI50 is 90.8 µM (inactive).

What about the GI50 [33] of the same compound?
Its GI50 is 36.1 µM (inactive).

What about the GI50 [57] of the same compound?
The GI50 was 95.7 µM (inactive).

What about the GI50 [35] of the same compound?
The GI50 was 29 µM (inactive).

What about the GI50 [36] of the same compound?
Its GI50 is 18.3 µM (inactive).

What about the GI50 [37] of the same compound?
Its GI50 is 62.7 µM (inactive).

What about the GI50 [38] of the same compound?
Its GI50 is 8.57 µM (inactive).

What about the GI50 [39] of the same compound?
The GI50 was 54.7 µM (inactive).

And the GI50 [40]?
The GI50 was > 100 µM (inactive).

And the GI50 [41]?
Its GI50 is 42 µM (inactive).

And the GI50 [42]?
The GI50 was 32.9 µM (inactive).

And the GI50 [43]?
Its GI50 is 33.7 µM (inactive).

And the GI50 [44]?
Its GI50 is > 100 µM (inactive).

What about the GI50 [45] of the same compound?
Its GI50 is 30.8 µM (inactive).

What about the GI50 [47] of the same compound?
Its GI50 is 94.6 µM (inactive).

What about the GI50 [48] of the same compound?
Its GI50 is 41.6 µM (inactive).

And the GI50 [49]?
The GI50 was > 100 µM (inactive).

What about the GI50 [50] of the same compound?
Its GI50 is 58.5 µM (inactive).

What about the GI50 [58] of the same compound?
The GI50 was 60.1 µM (inactive).

And the GI50 [51]?
The GI50 was 23.1 µM (inactive).

What about the GI50 [53] of the same compound?
Its GI50 is 32.3 µM (inactive).

And the GI50 [54]?
The GI50 was 48.2 µM (inactive).

What about the GI50 [55] of the same compound?
The GI50 was 23.8 µM (inactive).

Which results are given for FC(F)(Sc1ccccc1)c1nc2ccccc2o1?
GI50 [1]: 47.4 µM (inactive); GI50 [2]: 61.1 µM (inactive); GI50 [3]: 40.3 µM (inactive); GI50 [4]: 27 µM (inactive); GI50 [5]: 67.8 µM (inactive); GI50 [56]: 12.5 µM (inactive); GI50 [6]: 49 µM (inactive); GI50 [7]: 82.6 µM (inactive); GI50 [8]: 97.1 µM (inactive); GI50 [9]: 21.9 µM (inactive); GI50 [10]: 59.7 µM (inactive); GI50 [11]: > 100 µM (inactive); GI50 [12]: 22 µM; GI50 [13]: > 100 µM (inactive); GI50 [14]: > 100 µM (inactive); GI50 [15]: 35.5 µM (inactive); GI50 [17]: 55.5 µM (inactive); GI50 [18]: 43.3 µM (inactive); GI50 [19]: 20.8 µM (inactive); GI50 [59]: > 100 µM (inactive); GI50 [21]: 48.5 µM (inactive); GI50 [22]: 91.6 µM (inactive); GI50 [23]: 19.4 µM (inactive); GI50 [24]: 33.6 µM (inactive); GI50 [25]: 91 µM (inactive); GI50 [26]: 68.9 µM (inactive); GI50 [27]: 75.2 µM (inactive); GI50 [28]: > 100 µM (inactive); GI50 [29]: 55.5 µM (inactive); GI50 [30]: > 100 µM (inactive); GI50 [31]: > 100 µM (inactive); GI50 [32]: 51.1 µM (inactive); GI50 [33]: 67.8 µM (inactive); GI50 [57]: 67.8 µM (inactive); GI50 [34]: 13.8 µM (inactive); GI50 [35]: 63.8 µM (inactive); GI50 [38]: 34.4 µM (inactive); GI50 [39]: 30.1 µM (inactive); GI50 [40]: 92.7 µM (inactive); GI50 [41]: > 100 µM (inactive); GI50 [42]: 28.6 µM (inactive); GI50 [43]: 50 µM (inactive); GI50 [44]: 46.9 µM (inactive); GI50 [45]: 83.4 µM (inactive); GI50 [46]: 22 µM (inactive); GI50 [47]: 74.5 µM (inactive); GI50 [48]: 18.6 µM (inactive); GI50 [49]: 95.3 µM (inactive); GI50 [50]: 57 µM (inactive); GI50 [58]: 34.6 µM (inactive); GI50 [51]: > 100 µM (inactive); GI50 [53]: 28.5 µM (inactive); GI50 [54]: 35.2 µM (inactive)
